Test results reported in the kinase profiling compilation of Christmann-Franck et al. (2016).

How the values were obtained:
Assay in all cases: radiometric filter-binding kinase assay
TBK1 (human) = TBK1 (human) (UniProt Q9UHD2)
EPHB1 (human) = EPHB1 (human) (UniProt P54762)
CHEK2 (human) = CHEK2 (human) (UniProt O96017)
MAP3K5 (human) = MAP3K5 (human) (UniProt Q99683)
SRC (human) = SRC (human) (UniProt P12931)
INSR (human) = INSR (human) (UniProt P06213)
STK3 (human) = STK3 (human) (UniProt Q13188)
CLK2 (human) = CLK2 (human) (UniProt P49760)
Sequence of CLK2 (human) (P49760 whole entry, looked up): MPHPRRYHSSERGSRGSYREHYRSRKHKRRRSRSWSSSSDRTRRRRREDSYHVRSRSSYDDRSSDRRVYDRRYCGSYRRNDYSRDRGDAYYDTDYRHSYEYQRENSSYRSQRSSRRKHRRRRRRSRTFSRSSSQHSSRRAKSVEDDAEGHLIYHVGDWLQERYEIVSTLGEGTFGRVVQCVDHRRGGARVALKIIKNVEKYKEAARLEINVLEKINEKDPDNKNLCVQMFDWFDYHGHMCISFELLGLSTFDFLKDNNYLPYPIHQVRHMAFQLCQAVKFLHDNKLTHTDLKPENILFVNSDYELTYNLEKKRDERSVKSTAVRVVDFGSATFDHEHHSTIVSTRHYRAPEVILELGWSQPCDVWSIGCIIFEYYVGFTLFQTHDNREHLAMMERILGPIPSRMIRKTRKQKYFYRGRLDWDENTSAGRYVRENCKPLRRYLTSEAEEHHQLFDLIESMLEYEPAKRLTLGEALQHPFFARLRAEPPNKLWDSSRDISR

PIM1 (human) = PIM1 (human) (UniProt P11309)
NEK2 (human) = NEK2 (human) (UniProt P51955)
CSK (human) = CSK (human) (UniProt P41240)
DYRK2 (human) = DYRK2 (human) (UniProt Q92630)
NTRK1 (human) = NTRK1 (human) (UniProt P04629)
Sequence of NTRK1 (human) (P04629 whole entry, looked up): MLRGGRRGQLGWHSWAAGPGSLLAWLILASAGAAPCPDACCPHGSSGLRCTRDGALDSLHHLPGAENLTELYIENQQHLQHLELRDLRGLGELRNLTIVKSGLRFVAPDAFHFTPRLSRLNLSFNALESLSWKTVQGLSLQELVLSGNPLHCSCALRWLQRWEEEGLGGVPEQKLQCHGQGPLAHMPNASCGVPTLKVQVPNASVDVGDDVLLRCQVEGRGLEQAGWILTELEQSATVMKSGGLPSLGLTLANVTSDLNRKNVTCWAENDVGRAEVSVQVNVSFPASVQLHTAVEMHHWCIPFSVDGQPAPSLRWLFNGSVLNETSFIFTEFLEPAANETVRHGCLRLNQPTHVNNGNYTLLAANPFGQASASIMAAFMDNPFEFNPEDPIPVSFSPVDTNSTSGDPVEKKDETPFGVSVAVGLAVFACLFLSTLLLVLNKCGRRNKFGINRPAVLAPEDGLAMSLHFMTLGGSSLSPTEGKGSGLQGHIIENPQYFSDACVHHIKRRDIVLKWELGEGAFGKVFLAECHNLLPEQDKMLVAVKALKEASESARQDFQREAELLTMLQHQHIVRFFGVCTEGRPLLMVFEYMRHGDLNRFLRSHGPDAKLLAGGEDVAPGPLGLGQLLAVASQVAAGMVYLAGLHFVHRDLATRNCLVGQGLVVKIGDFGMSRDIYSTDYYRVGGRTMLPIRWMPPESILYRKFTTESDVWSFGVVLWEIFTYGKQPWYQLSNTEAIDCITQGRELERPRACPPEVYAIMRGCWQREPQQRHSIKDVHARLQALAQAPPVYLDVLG

IRAK4 (human) = IRAK4 (human) (UniProt Q9NWZ3)
MAPK1 (human) = MAPK1 (human) (UniProt P28482)
Sequence of MAPK1 (human) (P28482 whole entry, looked up): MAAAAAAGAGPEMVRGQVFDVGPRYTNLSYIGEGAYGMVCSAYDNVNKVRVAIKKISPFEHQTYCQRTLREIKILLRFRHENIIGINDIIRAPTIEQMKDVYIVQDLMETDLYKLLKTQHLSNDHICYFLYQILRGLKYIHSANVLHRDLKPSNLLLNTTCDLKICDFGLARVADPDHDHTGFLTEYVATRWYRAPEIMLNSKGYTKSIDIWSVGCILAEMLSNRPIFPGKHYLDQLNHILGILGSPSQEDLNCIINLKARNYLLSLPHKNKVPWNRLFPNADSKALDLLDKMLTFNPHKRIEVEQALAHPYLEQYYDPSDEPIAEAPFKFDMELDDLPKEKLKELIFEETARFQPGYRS

[1] = tested on: SGK1 (human), O00141 [S422D]
EEF2K (human) = EEF2K (human) (UniProt O00418)
Sequence of EEF2K (human) (O00418 whole entry, looked up): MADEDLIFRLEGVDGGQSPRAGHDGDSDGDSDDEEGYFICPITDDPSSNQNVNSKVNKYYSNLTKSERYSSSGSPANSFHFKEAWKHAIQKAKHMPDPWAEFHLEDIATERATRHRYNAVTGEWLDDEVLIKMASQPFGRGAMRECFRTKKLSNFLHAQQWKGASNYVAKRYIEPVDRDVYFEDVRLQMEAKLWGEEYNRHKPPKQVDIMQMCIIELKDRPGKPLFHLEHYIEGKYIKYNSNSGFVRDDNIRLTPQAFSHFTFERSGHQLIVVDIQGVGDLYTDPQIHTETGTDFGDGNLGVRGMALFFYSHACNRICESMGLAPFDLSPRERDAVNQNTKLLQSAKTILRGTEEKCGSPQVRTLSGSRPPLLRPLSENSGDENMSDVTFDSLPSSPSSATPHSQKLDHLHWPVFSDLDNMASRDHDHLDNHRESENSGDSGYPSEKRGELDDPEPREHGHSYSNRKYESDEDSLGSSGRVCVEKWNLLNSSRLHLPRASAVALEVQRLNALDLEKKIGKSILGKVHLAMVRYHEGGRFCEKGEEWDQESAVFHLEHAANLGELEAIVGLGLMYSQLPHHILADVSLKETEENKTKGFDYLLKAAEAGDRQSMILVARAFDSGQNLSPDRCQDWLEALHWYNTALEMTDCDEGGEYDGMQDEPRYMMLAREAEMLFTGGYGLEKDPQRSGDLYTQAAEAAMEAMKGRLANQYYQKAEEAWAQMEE

GCK (human) = GCK (human) (UniProt Q12851)
NEK6 (human) = NEK6 (human) (UniProt Q9HC98)
RPS6KA1 KD1 KD2 (human) = RPS6KA1 KD1 KD2 (human) (UniProt Q15418)
DYRK3 (human) = DYRK3 (human) (UniProt O43781)
SRPK1 (human) = SRPK1 (human) (UniProt Q96SB4)
PIM3 (human) = PIM3 (human) (UniProt Q86V86)
HIPK2 (human) = HIPK2 (human) (UniProt Q9H2X6)
Sequence of HIPK2 (human) (Q9H2X6 whole entry, looked up): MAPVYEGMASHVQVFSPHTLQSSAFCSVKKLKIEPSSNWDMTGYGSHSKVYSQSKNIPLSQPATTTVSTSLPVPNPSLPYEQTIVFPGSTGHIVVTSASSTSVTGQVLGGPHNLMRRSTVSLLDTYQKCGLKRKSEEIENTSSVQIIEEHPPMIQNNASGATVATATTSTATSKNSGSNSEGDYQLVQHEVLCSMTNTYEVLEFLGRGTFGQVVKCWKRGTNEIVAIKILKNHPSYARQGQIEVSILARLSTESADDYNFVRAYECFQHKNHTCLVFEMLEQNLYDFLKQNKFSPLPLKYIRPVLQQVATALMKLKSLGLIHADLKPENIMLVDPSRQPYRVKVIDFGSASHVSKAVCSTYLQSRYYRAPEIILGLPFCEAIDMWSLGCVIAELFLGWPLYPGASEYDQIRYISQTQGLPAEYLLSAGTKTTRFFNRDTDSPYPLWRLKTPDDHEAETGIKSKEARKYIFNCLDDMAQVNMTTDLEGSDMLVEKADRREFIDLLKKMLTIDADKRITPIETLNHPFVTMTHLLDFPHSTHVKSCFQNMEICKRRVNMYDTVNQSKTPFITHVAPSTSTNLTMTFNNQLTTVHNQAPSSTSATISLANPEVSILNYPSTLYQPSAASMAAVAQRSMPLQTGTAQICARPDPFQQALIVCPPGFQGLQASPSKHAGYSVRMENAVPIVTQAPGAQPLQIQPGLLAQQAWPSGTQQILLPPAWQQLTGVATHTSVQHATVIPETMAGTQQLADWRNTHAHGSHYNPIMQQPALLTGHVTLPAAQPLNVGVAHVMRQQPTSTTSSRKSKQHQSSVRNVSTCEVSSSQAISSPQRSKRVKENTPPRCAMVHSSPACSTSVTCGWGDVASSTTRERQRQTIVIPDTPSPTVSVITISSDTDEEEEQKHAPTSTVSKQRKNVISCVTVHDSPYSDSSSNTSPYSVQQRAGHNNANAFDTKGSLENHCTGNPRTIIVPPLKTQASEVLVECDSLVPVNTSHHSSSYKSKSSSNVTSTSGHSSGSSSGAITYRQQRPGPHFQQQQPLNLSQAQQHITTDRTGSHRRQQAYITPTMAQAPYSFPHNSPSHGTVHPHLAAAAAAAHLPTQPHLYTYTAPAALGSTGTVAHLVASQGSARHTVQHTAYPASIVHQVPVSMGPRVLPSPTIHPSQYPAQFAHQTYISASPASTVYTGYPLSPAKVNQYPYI

MARK4 (human) = MARK4 (human) (UniProt Q96L34)
GSK3B (human) = GSK3B (human) (UniProt P49841)
MAP3K1 (human) = MAP3K1 (human) (UniProt Q13233)
BTK (human) = BTK (human) (UniProt Q06187)
MYLK (human) = MYLK (human) (UniProt Q15746)
MARK1 (human) = MARK1 (human) (UniProt Q9P0L2)
PAK6 (human) = PAK6 (human) (UniProt Q9NQU5)
Sequence of PAK6 (human) (Q9NQU5 whole entry, looked up): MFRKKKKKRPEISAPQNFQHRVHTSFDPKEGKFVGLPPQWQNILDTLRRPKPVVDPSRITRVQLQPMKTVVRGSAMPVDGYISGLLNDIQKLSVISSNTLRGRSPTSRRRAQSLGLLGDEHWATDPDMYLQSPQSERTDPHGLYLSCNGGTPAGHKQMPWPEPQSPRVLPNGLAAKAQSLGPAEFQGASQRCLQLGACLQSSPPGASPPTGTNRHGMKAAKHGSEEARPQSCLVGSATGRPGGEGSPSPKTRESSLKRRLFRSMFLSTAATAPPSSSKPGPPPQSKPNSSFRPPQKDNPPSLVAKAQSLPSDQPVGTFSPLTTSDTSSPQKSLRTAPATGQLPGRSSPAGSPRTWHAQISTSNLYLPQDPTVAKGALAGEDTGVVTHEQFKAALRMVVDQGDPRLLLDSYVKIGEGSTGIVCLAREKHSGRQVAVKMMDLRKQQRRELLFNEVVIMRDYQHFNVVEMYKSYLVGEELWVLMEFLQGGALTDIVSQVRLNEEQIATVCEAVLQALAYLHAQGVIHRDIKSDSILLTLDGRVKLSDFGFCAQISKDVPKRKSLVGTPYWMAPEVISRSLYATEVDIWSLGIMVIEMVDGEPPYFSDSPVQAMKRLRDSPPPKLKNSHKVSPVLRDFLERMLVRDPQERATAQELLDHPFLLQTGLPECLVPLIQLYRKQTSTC

MAPKAPK3 (human) = MAPKAPK3 (human) (UniProt Q16644)
DYRK1A (human) = DYRK1A (human) (UniProt Q13627)
JAK2 JH1 JH2 (human) = JAK2 JH1 JH2 (human) (UniProt O60674)
CAMKK2 (human) = CAMKK2 (human) (UniProt Q96RR4)

Sequence of SRC (human) (P12931 whole entry, looked up): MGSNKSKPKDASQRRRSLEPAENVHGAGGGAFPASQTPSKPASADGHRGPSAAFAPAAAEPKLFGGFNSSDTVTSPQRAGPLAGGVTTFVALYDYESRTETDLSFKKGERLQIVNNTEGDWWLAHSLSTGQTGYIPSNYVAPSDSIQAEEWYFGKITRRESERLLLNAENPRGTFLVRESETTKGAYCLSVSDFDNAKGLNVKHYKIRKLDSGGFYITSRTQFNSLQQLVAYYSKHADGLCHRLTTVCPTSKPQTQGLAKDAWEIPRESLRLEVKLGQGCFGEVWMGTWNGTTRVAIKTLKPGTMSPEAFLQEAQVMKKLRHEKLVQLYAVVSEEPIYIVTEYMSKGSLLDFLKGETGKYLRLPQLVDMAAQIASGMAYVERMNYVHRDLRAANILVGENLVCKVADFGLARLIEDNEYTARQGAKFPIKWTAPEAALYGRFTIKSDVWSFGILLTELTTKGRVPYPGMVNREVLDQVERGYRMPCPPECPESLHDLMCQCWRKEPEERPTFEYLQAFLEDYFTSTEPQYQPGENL

Q: Which residual activity (TBK1 (human); compound 1.0 µM) does the source give for `O=C1c2ccccc2-c2n[nH]c3cccc1c23` here?
A: 76%

Q: What about the residual activity (TBK1 (human); compound 10.0 µM) of the same compound?
A: 41%

Q: What about the residual activity (EPHB1 (human); compound 1.0 µM) of the same compound?
A: 108%

Q: What about the residual activity (EPHB1 (human); compound 10.0 µM) of the same compound?
A: 70%

Q: What about the residual activity (CHEK2 (human); compound 1.0 µM) of the same compound?
A: 21%

Q: And the residual activity (CHEK2 (human); compound 10.0 µM)?
A: 5%

Q: What about the residual activity (MAP3K5 (human); compound 1.0 µM) of the same compound?
A: 19%

Q: And the residual activity (MAP3K5 (human); compound 10.0 µM)?
A: 6%

Q: And the residual activity (SRC (human); compound 1.0 µM)?
A: 81%

Q: And the residual activity (SRC (human); compound 10.0 µM)?
A: 41%

Q: What about the residual activity (INSR (human); compound 1.0 µM) of the same compound?
A: 89%

Q: And the residual activity (INSR (human); compound 10.0 µM)?
A: 27%

Q: What about the residual activity (STK3 (human); compound 1.0 µM) of the same compound?
A: 40%

Q: What about the residual activity (STK3 (human); compound 10.0 µM) of the same compound?
A: 29%

Q: What about the residual activity (CLK2 (human); compound 1.0 µM) of the same compound?
A: 16%

Q: And the residual activity (CLK2 (human); compound 10.0 µM)?
A: 3%

Q: What about the residual activity (PIM1 (human); compound 1.0 µM) of the same compound?
A: 43%

Q: What about the residual activity (PIM1 (human); compound 10.0 µM) of the same compound?
A: 15%

Q: What about the residual activity (NEK2 (human); compound 1.0 µM) of the same compound?
A: 129%

Q: What about the residual activity (NEK2 (human); compound 10.0 µM) of the same compound?
A: 95%

Q: And the residual activity (CSK (human); compound 1.0 µM)?
A: 91%

Q: And the residual activity (CSK (human); compound 10.0 µM)?
A: 64%

Q: And the residual activity (DYRK2 (human); compound 1.0 µM)?
A: 12%

Q: What about the residual activity (DYRK2 (human); compound 10.0 µM) of the same compound?
A: 2%

Q: What about the residual activity (NTRK1 (human); compound 1.0 µM) of the same compound?
A: 27%

Q: And the residual activity (NTRK1 (human); compound 10.0 µM)?
A: 14%

Q: What about the residual activity (IRAK4 (human); compound 1.0 µM) of the same compound?
A: 33%

Q: What about the residual activity (IRAK4 (human); compound 10.0 µM) of the same compound?
A: 8%

Q: What about the residual activity (MAPK1 (human); compound 1.0 µM) of the same compound?
A: 83%

Q: What about the residual activity (MAPK1 (human); compound 10.0 µM) of the same compound?
A: 62%

Q: And the residual activity ([1]; compound 1.0 µM)?
A: 72%

Q: What about the residual activity ([1]; compound 10.0 µM) of the same compound?
A: 30%

Q: And the residual activity (EEF2K (human); compound 1.0 µM)?
A: 94%

Q: And the residual activity (EEF2K (human); compound 10.0 µM)?
A: 96%

Q: What about the residual activity (GCK (human); compound 1.0 µM) of the same compound?
A: 13%

Q: What about the residual activity (GCK (human); compound 10.0 µM) of the same compound?
A: 4%

Q: What about the residual activity (NEK6 (human); compound 1.0 µM) of the same compound?
A: 95%

Q: What about the residual activity (NEK6 (human); compound 10.0 µM) of the same compound?
A: 66%

Q: What about the residual activity (RPS6KA1 KD1 KD2 (human); compound 1.0 µM) of the same compound?
A: 66%

Q: And the residual activity (RPS6KA1 KD1 KD2 (human); compound 10.0 µM)?
A: 26%

Q: What about the residual activity (DYRK3 (human); compound 1.0 µM) of the same compound?
A: 45%

Q: What about the residual activity (DYRK3 (human); compound 10.0 µM) of the same compound?
A: 10%

Q: And the residual activity (SRPK1 (human); compound 1.0 µM)?
A: 91%

Q: What about the residual activity (SRPK1 (human); compound 10.0 µM) of the same compound?
A: 77%

Q: What about the residual activity (PIM3 (human); compound 1.0 µM) of the same compound?
A: 33%

Q: What about the residual activity (PIM3 (human); compound 10.0 µM) of the same compound?
A: 11%

Q: And the residual activity (HIPK2 (human); compound 1.0 µM)?
A: 31%

Q: What about the residual activity (HIPK2 (human); compound 10.0 µM) of the same compound?
A: 11%

Q: What about the residual activity (MARK4 (human); compound 1.0 µM) of the same compound?
A: 72%

Q: What about the residual activity (MARK4 (human); compound 10.0 µM) of the same compound?
A: 32%

Q: And the residual activity (GSK3B (human); compound 1.0 µM)?
A: 87%

Q: And the residual activity (GSK3B (human); compound 10.0 µM)?
A: 51%

Q: And the residual activity (MAP3K1 (human); compound 1.0 µM)?
A: 73%

Q: What about the residual activity (MAP3K1 (human); compound 10.0 µM) of the same compound?
A: 28%

Q: And the residual activity (BTK (human); compound 1.0 µM)?
A: 95%

Q: And the residual activity (BTK (human); compound 10.0 µM)?
A: 62%

Q: And the residual activity (MYLK (human); compound 1.0 µM)?
A: 26%

Q: What about the residual activity (MYLK (human); compound 10.0 µM) of the same compound?
A: 11%

Q: And the residual activity (MARK1 (human); compound 1.0 µM)?
A: 68%

Q: What about the residual activity (MARK1 (human); compound 10.0 µM) of the same compound?
A: 29%

Q: And the residual activity (PAK6 (human); compound 1.0 µM)?
A: 91%

Q: And the residual activity (PAK6 (human); compound 10.0 µM)?
A: 54%

Q: What about the residual activity (MAPKAPK3 (human); compound 1.0 µM) of the same compound?
A: 113%

Q: What about the residual activity (MAPKAPK3 (human); compound 10.0 µM) of the same compound?
A: 66%

Q: And the residual activity (DYRK1A (human); compound 1.0 µM)?
A: 35%

Q: And the residual activity (DYRK1A (human); compound 10.0 µM)?
A: 7%

Q: And the residual activity (JAK2 JH1 JH2 (human); compound 1.0 µM)?
A: 26%

Q: And the residual activity (JAK2 JH1 JH2 (human); compound 10.0 µM)?
A: 6%

Q: What about the residual activity (CAMKK2 (human); compound 1.0 µM) of the same compound?
A: 45%

Q: What about the residual activity (CAMKK2 (human); compound 10.0 µM) of the same compound?
A: 22%

Q: With `Cc1nc(N)sc1-c1csc(Nc2cccnc2)n1` as the compound, how does the residual activity (TBK1 (human); compound 10.0 µM) read?
A: 75%

Q: And the residual activity (EPHB1 (human); compound 10.0 µM)?
A: 93%

Q: And the residual activity (CHEK2 (human); compound 10.0 µM)?
A: 57%

Q: And the residual activity (CHEK2 (human); compound 100.0 µM)?
A: 10%

Q: And the residual activity (MAP3K5 (human); compound 10.0 µM)?
A: 96%

Q: And the residual activity (SRC (human); compound 10.0 µM)?
A: 91%

Q: And the residual activity (INSR (human); compound 10.0 µM)?
A: 34%

Q: And the residual activity (INSR (human); compound 100.0 µM)?
A: 69%

Q: What about the residual activity (STK3 (human); compound 10.0 µM) of the same compound?
A: 76%

Q: What about the residual activity (CLK2 (human); compound 10.0 µM) of the same compound?
A: 18%

Q: What about the residual activity (CLK2 (human); compound 100.0 µM) of the same compound?
A: 3%

Q: What about the residual activity (PIM1 (human); compound 10.0 µM) of the same compound?
A: 22%

Q: And the residual activity (PIM1 (human); compound 100.0 µM)?
A: 6%

Q: And the residual activity (NEK2 (human); compound 10.0 µM)?
A: 42%

Q: What about the residual activity (NEK2 (human); compound 100.0 µM) of the same compound?
A: 14%

Q: What about the residual activity (CSK (human); compound 10.0 µM) of the same compound?
A: 83%

Q: And the residual activity (DYRK2 (human); compound 10.0 µM)?
A: 50%

Q: And the residual activity (DYRK2 (human); compound 100.0 µM)?
A: 8%

Q: And the residual activity (NTRK1 (human); compound 10.0 µM)?
A: 73%

Q: And the residual activity (IRAK4 (human); compound 10.0 µM)?
A: 74%

Q: And the residual activity (MAPK1 (human); compound 10.0 µM)?
A: 93%

Q: And the residual activity (MAPK1 (human); compound 100.0 µM)?
A: 95%

Q: What about the residual activity ([1]; compound 10.0 µM) of the same compound?
A: 96%

Q: And the residual activity (EEF2K (human); compound 10.0 µM)?
A: 77%

Q: And the residual activity (GCK (human); compound 10.0 µM)?
A: 63%

Q: And the residual activity (NEK6 (human); compound 10.0 µM)?
A: 73%

Q: What about the residual activity (RPS6KA1 KD1 KD2 (human); compound 10.0 µM) of the same compound?
A: 105%

Q: And the residual activity (DYRK3 (human); compound 10.0 µM)?
A: 45%

Q: What about the residual activity (DYRK3 (human); compound 100.0 µM) of the same compound?
A: 6%

Q: And the residual activity (SRPK1 (human); compound 10.0 µM)?
A: 82%

Q: What about the residual activity (PIM3 (human); compound 10.0 µM) of the same compound?
A: 17%

Q: What about the residual activity (PIM3 (human); compound 100.0 µM) of the same compound?
A: 10%

Q: And the residual activity (HIPK2 (human); compound 10.0 µM)?
A: 61%

Q: And the residual activity (HIPK2 (human); compound 100.0 µM)?
A: 7%

Q: And the residual activity (MARK4 (human); compound 10.0 µM)?
A: 83%

Q: What about the residual activity (GSK3B (human); compound 10.0 µM) of the same compound?
A: 48%

Q: What about the residual activity (GSK3B (human); compound 100.0 µM) of the same compound?
A: 19%

Q: And the residual activity (MAP3K1 (human); compound 10.0 µM)?
A: 90%

Q: And the residual activity (BTK (human); compound 10.0 µM)?
A: 26%

Q: And the residual activity (BTK (human); compound 100.0 µM)?
A: 38%

Q: And the residual activity (MYLK (human); compound 10.0 µM)?
A: 68%

Q: And the residual activity (MARK1 (human); compound 10.0 µM)?
A: 82%

Q: What about the residual activity (PAK6 (human); compound 10.0 µM) of the same compound?
A: 84%

Q: What about the residual activity (MAPKAPK3 (human); compound 10.0 µM) of the same compound?
A: 23%

Q: And the residual activity (MAPKAPK3 (human); compound 100.0 µM)?
A: 5%

Q: What about the residual activity (DYRK1A (human); compound 10.0 µM) of the same compound?
A: 33%

Q: What about the residual activity (DYRK1A (human); compound 100.0 µM) of the same compound?
A: 11%

Q: What about the residual activity (JAK2 JH1 JH2 (human); compound 10.0 µM) of the same compound?
A: 63%

Q: What about the residual activity (CAMKK2 (human); compound 10.0 µM) of the same compound?
A: 62%
